Source: PubChem BioAssay (NCI)
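Growth conditions: 96-well plates. Treatment: test compound, 48 hours, 5 concentrations. Analysis: linear interpolation between bracketing concentrations; unreached endpoints set to highest concentration. GI50 is the concentration that inhibits growth by half. The concentration for full growth arrest is given as TGI.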

How the values were obtained:
Assay in all cases: NCI anticancer screen, dose series, 48 h
[1] = system: 786-0 renal
[2] = system: A498 renal
[3] = system: HOP-92 NSCLC
[4] = system: HT29 colon
[5] = system: K-562 leukemia
[6] = system: KM12 colon
[7] = system: SF-539 CNS
[8] = system: SNB-19 CNS
[9] = system: SW-620 colon
[10] = system: U251 CNS

Cc1nc2cnc3cc(F)c(-c4ccc(Oc5ncccn5)cc4Cl)cc3c2n1[C@H]1CCN(C(=O)CO)C[C@@H]1F
GI50 [1]: 8.47 µM | TGI [1]: > 100 µM | GI50 [2]: 4.58 µM | TGI [2]: > 84.9 µM | GI50 [3]: 0.403 µM | TGI [3]: 3.5 µM | GI50 [4]: 0.0513 µM | TGI [4]: 16.9 µM | GI50 [5]: 4.6 µM | TGI [5]: > 100 µM | GI50 [6]: 0.0405 µM | TGI [6]: > 100 µM | GI50 [7]: 3.03 µM | TGI [7]: 16.9 µM | GI50 [8]: 4.89 µM | TGI [8]: > 100 µM | GI50 [9]: 0.422 µM | TGI [9]: 54.6 µM | GI50 [10]: 5.91 µM | TGI [10]: > 100 µM

CCOC(=O)C1=C(NNC(=O)Cc2ccccc2)CSC1=Nc1ccccc1
TGI [1]: > 100 µM | TGI [2]: > 100 µM | TGI [3]: > 100 µM | TGI [4]: > 100 µM | TGI [5]: > 100 µM | TGI [6]: > 100 µM | TGI [7]: > 100 µM | TGI [8]: > 100 µM | TGI [9]: > 100 µM | TGI [10]: > 100 µM

C/C([O-])=C1\Cc2ccccc2C1=O.C/C([O-])=C1\Cc2ccccc2C1=O.CC[O-].CC[O-].[Ti+4]
GI50 [1]: 20.8 µM | TGI [1]: 77.6 µM | GI50 [2]: 13.4 µM | TGI [2]: 31.5 µM | GI50 [3]: 18.7 µM | TGI [3]: 55.4 µM | GI50 [4]: 31.9 µM | TGI [4]: > 100 µM | GI50 [5]: 20.3 µM | TGI [5]: > 78.6 µM | GI50 [6]: 17.3 µM | TGI [6]: 46.1 µM | GI50 [7]: 13.6 µM | TGI [7]: 33.1 µM | GI50 [8]: 17.4 µM | TGI [8]: 38.5 µM | GI50 [9]: 24.8 µM | TGI [9]: > 84.9 µM | GI50 [10]: 9.36 µM | TGI [10]: 26.2 µM

Cc1ccc2c(c1C)-c1c(ccc(C)c1C)C(=O)C2=O
TGI [1]: 1.8 µM | TGI [2]: 4.35 µM | TGI [3]: 5.02 µM | TGI [4]: 7.43 µM | TGI [5]: 1.1 µM | TGI [6]: 2.21 µM | TGI [7]: 0.42 µM | TGI [8]: 23.8 µM | TGI [9]: 3.23 µM | TGI [10]: 12.8 µM

CCC(CC)n1cc(C(=O)NC(=O)NCCCCCOC(=O)CCCCCCCCCCC(=O)OCCCCCNC(=O)NC(=O)c2cn(C(CC)CC)c(=O)[nH]c2=O)c(=O)[nH]c1=O
TGI [1]: > 100 µM | TGI [2]: > 100 µM | TGI [3]: > 100 µM | TGI [4]: > 100 µM | TGI [5]: > 100 µM | TGI [6]: > 100 µM | TGI [7]: > 100 µM | TGI [8]: > 100 µM | TGI [9]: > 100 µM | TGI [10]: > 100 µM

C=CC1=C[C@@H]2[C@@H]3O[C@]4(CC[C@H](O4)[C@@H](C)C[C@@H](O)C3=O)C[C@H](O)C3=NCC[C@@]32CC1
GI50 [1]: < 0.00333 µM | TGI [1]: 0.00341 µM | GI50 [2]: < 0.00333 µM | TGI [2]: < 0.00333 µM | GI50 [3]: < 0.00333 µM | TGI [3]: 0.00606 µM | GI50 [4]: < 0.00333 µM | GI50 [5]: < 0.00333 µM | TGI [5]: > 33.3 µM | GI50 [6]: < 0.00333 µM | TGI [6]: 0.0061 µM | GI50 [7]: < 0.00333 µM | TGI [7]: < 0.00333 µM | GI50 [8]: < 0.00333 µM | TGI [8]: < 0.00333 µM | GI50 [9]: < 0.00333 µM | TGI [9]: 0.00523 µM | GI50 [10]: < 0.00333 µM | TGI [10]: 0.39 µM

N#C/C(=C1\NN=C(N)C(c2ccc(Cl)cc2)=C1O)c1ccc(Cl)cc1
TGI [1]: > 100 µM | TGI [2]: > 100 µM | TGI [3]: > 100 µM | TGI [4]: > 100 µM | TGI [5]: > 100 µM | TGI [6]: > 100 µM | TGI [7]: > 100 µM | TGI [8]: > 100 µM | TGI [9]: > 100 µM | TGI [10]: > 100 µM

COC(=O)C1C2C=CC(C2)C1(C(=O)OC)S(=O)CC12CCC(CC1O)C2(C)C (stereo not drawn)
TGI [1]: > 100 µM | TGI [2]: > 100 µM | TGI [3]: > 100 µM | TGI [4]: > 100 µM | TGI [5]: > 100 µM | TGI [6]: > 100 µM | TGI [7]: > 100 µM | TGI [8]: > 100 µM | TGI [9]: 37.6 µM | TGI [10]: > 100 µM

COc1ccc(C(=O)COc2cccc(/C=C3\CSc4ccccc4C3=O)c2)cc1
GI50 [1]: 1.75 µM | TGI [1]: 3.69 µM | GI50 [2]: 16.5 µM | TGI [2]: 32 µM | GI50 [3]: 2.4 µM | TGI [3]: 9.08 µM | GI50 [4]: 1.55 µM | TGI [4]: 3.18 µM | GI50 [5]: 0.362 µM | GI50 [6]: 1.56 µM | TGI [6]: 3.05 µM | GI50 [7]: 2.95 µM | TGI [7]: 8.51 µM | GI50 [8]: 2.77 µM | TGI [8]: 8.73 µM | GI50 [9]: 0.262 µM | TGI [9]: 0.707 µM | GI50 [10]: 1.57 µM | TGI [10]: 2.99 µM

COCC1N=C(c2cc(OC)c(OC)c(OC)c2-c2cc3c(cc2C2OCCCO2)OCO3)O[C@H]1c1ccccc1 (stereo partly drawn)
TGI [1]: > 100 µM | TGI [2]: > 100 µM | TGI [3]: > 100 µM | TGI [4]: > 100 µM | TGI [5]: > 100 µM | TGI [6]: > 100 µM | TGI [7]: > 100 µM | TGI [8]: > 100 µM | TGI [9]: > 100 µM | TGI [10]: > 100 µM

O=C(/C=C/c1ccc(Cl)c(Cl)c1)c1ccc(F)cc1
TGI [1]: 28.9 µM | TGI [2]: > 100 µM | TGI [3]: 72.1 µM | TGI [4]: 27.6 µM | TGI [5]: 18.7 µM | TGI [6]: 21.9 µM | TGI [7]: 38.2 µM | TGI [8]: 32.7 µM | TGI [9]: 4.08 µM | TGI [10]: 25.7 µM

O=C1OC(CC(=O)c2ccc(Cl)cc2Cl)C(Cl)=C1Cl (stereo not drawn)
TGI [1]: 52.2 µM | TGI [2]: > 100 µM | TGI [3]: 39.7 µM | TGI [4]: 36 µM | TGI [5]: > 76.7 µM | TGI [6]: > 100 µM | TGI [7]: 44.9 µM | TGI [8]: > 76.6 µM | TGI [9]: 38.1 µM | TGI [10]: > 72.8 µM

O=c1[nH]nc2ccccc2c1Cl
TGI [1]: 28.4 µM | TGI [2]: 33.2 µM | TGI [3]: 12.3 µM | TGI [4]: 23.6 µM | TGI [5]: 24.7 µM | TGI [6]: 26.6 µM | TGI [7]: 29.9 µM | TGI [8]: 30.5 µM | TGI [9]: 34.2 µM | TGI [10]: 29.2 µM

CN(C)c1ccc(-c2cc(-c3ccc(Nc4nc(Nc5ccccc5)nc(Nc5ccc(Cl)cc5)n4)cc3)nc(N)n2)cc1
GI50 [1]: 6.32 µM | TGI [1]: 46 µM | GI50 [2]: 4.63 µM | TGI [2]: 20.1 µM | GI50 [3]: 1.48 µM | TGI [3]: 13.2 µM | GI50 [4]: 3.27 µM | TGI [4]: 12.7 µM | GI50 [5]: 2.61 µM | TGI [5]: 11.4 µM | GI50 [6]: 3.06 µM | TGI [6]: 13 µM | GI50 [7]: 5.61 µM | TGI [7]: 23.5 µM | GI50 [8]: 13.5 µM | TGI [8]: 69.2 µM | GI50 [9]: 6.86 µM | TGI [9]: 21.8 µM | GI50 [10]: 5.06 µM | TGI [10]: 25 µM

C=CN1C(=O)OC[C@@H]1c1ccccc1
TGI [1]: > 100 µM | TGI [2]: > 100 µM | TGI [3]: > 100 µM | TGI [4]: > 100 µM | TGI [5]: > 100 µM | TGI [6]: > 100 µM | TGI [7]: > 100 µM | TGI [8]: > 100 µM | TGI [9]: 37.9 µM | TGI [10]: > 100 µM

c1cc(CCN2CCCCC2)ccn1
TGI [1]: > 100 µM | TGI [2]: > 100 µM | TGI [3]: > 100 µM | TGI [4]: > 100 µM | TGI [5]: > 100 µM | TGI [6]: > 100 µM | TGI [7]: > 100 µM | TGI [8]: > 100 µM | TGI [9]: > 100 µM | TGI [10]: > 100 µM
